What is called IC50 is the concentration needed to halve the response being measured. Lower therefore signals greater potency.

The results in this text go back to ChEMBL document CHEMBL4715921, “Novel Quinazolinyl Compounds as Endoribonuclease Inositol Requiring Enzyme 1 (IRE 1α) Inhibitors for Treating Cancer” (ACS Med Chem Lett, 2021).

Each structure is given as a SMILES string.

The assay is described as follows: Inhibition of His-tagged IRE1alpha D688N mutant KR domain (G547 to L997 reidues) (unknown origin) expressed in Sf9 insect cells measured after 1 hr by TR-FRET assay. The arrangement: species or system Homo sapiens. In general terms: TR-FRET usually uses a lanthanide donor and a delayed reading to cut background.
Turning to `CCc1cc(-c2ccc(NS(=O)(=O)Cc3ccccc3)c(F)c2)cc2cnc(N[C@@H]3CNC[C@@H](F)C3)nc12`, the IC50 was found to be 0.18 nM. The result for `O=S(=O)(Cc1ccccc1)Nc1c(F)cc(-c2ccc3nc(N[C@H]4CCCNC4)ncc3c2)cc1F` reads 0.53 nM; that for `O=S(=O)(Cc1ccccc1)Nc1c(F)cc(-c2ccc3nc(N[C@@H]4CNC[C@@H](F)C4)ncc3c2)cc1F`, 0.51 nM; that for `O=S(=O)(Cc1ccccc1)Nc1ccc(-c2ccc3nc(N[C@H]4CCCNC4)ncc3c2)c(F)c1F`, 0.57 nM. `CCc1cc(-c2ccc(NS(=O)(=O)CCC(F)(F)F)c(F)c2)cc2cnc(N[C@H]3CC[C@H](N(C)C)CC3)nc12` returned a concentration for half-maximal inhibition (IC50) of 0.25 nM. Turning to `CCc1cc(-c2ccc(NS(=O)(=O)Cc3ccccc3)cc2F)cc2cnc(N[C@@H]3CNC[C@@H](F)C3)nc12`, it took 0.46 nM to reach half-maximal inhibition (IC50).
